The values below come from patent US11400096B2, “Small molecules for the treatment of autoimmune disorders” (Board of Regents, The University of Texas System, priority 2017, dated 2022).

In the assay the test system is IL-17. Kind of assay: Inhibition of IL-17 secretion by compounds. The format is cell-based.
Take `CCCn1c(=O)c2nc(-c3ccc(OCc4nc5ccccc5[nH]4)cc3)[nH]c2n(CCC)c1=O` [Compound P2]: the “IL-17 Secretion Inhibition” value turned out to be 54.1%. Take `CCCn1c(=O)c2nc(-c3ccc(OCc4nc5cc(C)ccc5[nH]4)cc3)[nH]c2n(CCC)c1=O` [Compound P5]: the “IL-17 Secretion Inhibition” value was found to be 64.3%. Turning to `CCOc1nc2c(N)ncnc2n1CC1CC1` [Compound P8], the “IL-17 Secretion Inhibition” value was 45.4%.
